Measured values: patent US20250145665A1, “MACROCYCLIC PEPTIDES USEFUL AS MODULATORS OF TNF ALPHA” (Bristol-Myers Squibb Company, priority 2023, published 2025)
Positions of bridges follow the written chain, without caps; N, C: chain ends. Non-standard residues stand in square brackets, D forms with d. Residues, ends and D or L forms follow the SMILES beside them. Bip(4'-COOH) = N[C@@H](Cc1ccc(-c2ccc(C(=O)O)cc2)cc1)C(=O)O; Bip(4'-NHAc) = CC(=O)Nc1ccc(-c2ccc(C[C@H](N)C(=O)O)cc2)cc1; Ala(morpholin-4-yl) = N[C@@H](CN1CCOCC1)C(=O)O; Phe(3-CONH2) = NC(=O)c1cccc(C[C@H](N)C(=O)O)c1; Bip = N[C@@H](Cc1ccc(-c2ccccc2)cc1)C(=O)O; Tiq1c(1S) = O=C(O)[C@H]1NCCc2ccccc21; Hyp = O=C(O)[C@@H]1C[C@@H](O)CN1; 2Pal = N[C@@H](Cc1ccccn1)C(=O)O; Tic = O=C(O)[C@@H]1Cc2ccccc2CN1; Cha = N[C@@H](CC1CCCCC1)C(=O)O; Chg = N[C@H](C(=O)O)C1CCCCC1; Tle = CC(C)(C)[C@H](N)C(=O)O; Aze = O=C(O)[C@@H]1CCN1; Sar = CNCC(=O)O

The molecules below were run against TNFα (Homo sapiens, UniProt P01375) (assay: TNF-Induced HEK-Blue Assay). Settings: HEK-Blue-CD40L cells, NF-kB-driven secreted alkaline phosphatase reporter; TNFα 0.5 ng/ml; 18 h; read-out: TNF induced HEK-Blue assay IC50 value.
Assay type: cell-based

Chain of TNFα (P01375 77-233 limits assumed): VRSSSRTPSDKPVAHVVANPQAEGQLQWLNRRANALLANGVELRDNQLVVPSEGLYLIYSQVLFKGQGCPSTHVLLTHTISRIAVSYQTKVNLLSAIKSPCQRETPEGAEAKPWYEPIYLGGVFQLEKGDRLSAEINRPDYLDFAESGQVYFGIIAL

Row | IC50 [nM] | SMILES
1 | 50 to 200 | CC(=O)Nc1ccc(-c2ccc(C[C@@H]3NC(=O)[C@H](Cc4ccc(-c5ccccc5)cc4)NC(=O)[C@H](C(C)(C)C)NC(=O)CSC[C@@H](C(=O)NCC(N)=O)NC(=O)[C@H](CC(C)C)NC(=O)[C@H](Cc4ccccc4)NC(=O)[C@H](C(C)C)NC(=O)[C@@H]4CCCN4C(=O)[C@H](C(C)C)NC(=O)[C@@H](CCCNC(=N)N)NC(=O)[C@H](CC(=O)O)NC(=O)[C@H](Cc4ccc(O)cc4)NC(=O)CN(C)C3=O)cc2)cc1 [Example 263] ({CH2CO}-[Tle][Bip][Bip(4'-NHAc)][Sar]YD[dR]VPVFLCG-NH2; thioether N-13)
2 | 50 to 200 | CC[C@H](C)[C@@H]1NC(=O)[C@@H](CCCNC(=N)N)NC(=O)[C@H](CC(=O)O)NC(=O)[C@H](Cc2ccc(O)cc2)NC(=O)CN(C)C(=O)[C@H](Cc2ccc(-c3ccc(NC(C)=O)cc3)cc2)NC(=O)[C@H](Cc2ccc(-c3ccccc3)cc2)NC(=O)[C@H](C(C)(C)C)NC(=O)CSC[C@@H](C(=O)NCC(N)=O)NC(=O)[C@H](CC(C)C)NC(=O)[C@H](Cc2ccccc2)NC(=O)[C@H](C(C)C)NC(=O)[C@@H]2CCCN2C1=O [Example 264] ({CH2CO}-[Tle][Bip][Bip(4'-NHAc)][Sar]YD[dR]IPVFLCG-NH2; thioether N-13)
3 | 50 to 200 | CC(=O)Nc1ccc(-c2ccc(C[C@@H]3NC(=O)[C@H](Cc4ccc(-c5ccc(C(=O)O)cc5)cc4)NC(=O)[C@H](C(C)(C)C)NC(=O)CSC[C@@H](C(=O)NCC(N)=O)NC(=O)[C@H](CC(C)C)NC(=O)[C@H](Cc4ccc(O)cc4)NC(=O)[C@H](C(C)C)NC(=O)[C@@H]4CCCN4C(=O)[C@H](C(C)C)NC(=O)[C@@H](CCCNC(=N)N)NC(=O)[C@H](CC(=O)O)NC(=O)[C@@H]4CCCN4C(=O)CN(C)C3=O)cc2)cc1 [Example 265] ({CH2CO}-[Tle][Bip(4'-COOH)][Bip(4'-NHAc)][Sar]PD[dR]VPVYLCG-NH2; thioether N-13)
4 | 50 to 200 | CC(=O)Nc1ccc(-c2ccc(C[C@@H]3NC(=O)[C@H](Cc4ccc(-c5ccc(C(=O)O)cc5)cc4)NC(=O)[C@H](C(C)(C)C)NC(=O)CSC[C@@H](C(=O)NCC(N)=O)NC(=O)[C@H](CC(C)C)NC(=O)[C@H](Cc4ccc(O)cc4)NC(=O)[C@H](C(C)C)NC(=O)[C@@H]4CCN4C(=O)[C@H](C(C)C)NC(=O)[C@@H](CCCNC(=N)N)NC(=O)[C@H](CC(=O)O)NC(=O)[C@@H]4CCCN4C(=O)CN(C)C3=O)cc2)cc1 [Example 266] ({CH2CO}-[Tle][Bip(4'-COOH)][Bip(4'-NHAc)][Sar]PD[dR]V[Aze]VYLCG-NH2; thioether N-13)
5 | 50 to 200 | CC[C@H](C)[C@@H]1NC(=O)[C@@H](CCCNC(=N)N)NC(=O)[C@H](CC(=O)O)NC(=O)[C@@H]2CCCN2C(=O)CN(C)C(=O)[C@H](Cc2ccc(-c3ccc(NC(C)=O)cc3)cc2)NC(=O)[C@H](Cc2ccc(-c3ccccc3)cc2)NC(=O)[C@H](C(C)(C)C)NC(=O)CSC[C@@H](C(=O)NCC(N)=O)NC(=O)[C@H](CC(C)C)NC(=O)[C@H](Cc2ccc(O)cc2)NC(=O)[C@H](C(C)C)NC(=O)[C@@H]2CCCN2C1=O [Example 267] ({CH2CO}-[Tle][Bip][Bip(4'-NHAc)][Sar]PD[dR]IPVYLCG-NH2; thioether N-13)
6 | 50 to 200 | CC[C@H](C)[C@@H]1NC(=O)[C@@H](CCCNC(=N)N)NC(=O)[C@H](CC(=O)O)NC(=O)[C@@H]2CCCN2C(=O)CN(C)C(=O)[C@H](Cc2ccc(-c3ccc(NC(C)=O)cc3)cc2)NC(=O)[C@H](Cc2ccc(-c3ccc(C(=O)O)cc3)cc2)NC(=O)[C@H](C(C)(C)C)NC(=O)CSC[C@@H](C(=O)NCC(N)=O)NC(=O)[C@H](CC(C)C)NC(=O)[C@H](Cc2ccc(O)cc2)NC(=O)[C@H](C(C)C)NC(=O)[C@@H]2CCCN2C1=O [Example 269] ({CH2CO}-[Tle][Bip(4'-COOH)][Bip(4'-NHAc)][Sar]PD[dR]IPVYLCG-NH2; thioether N-13)
7 | 50 to 200 | CC[C@H](C)[C@@H]1NC(=O)[C@@H](CCCNC(=N)N)NC(=O)[C@H](CC(=O)O)NC(=O)[C@@H]2CCCN2C(=O)CN(C)C(=O)[C@H](Cc2ccc(-c3ccc(NC(C)=O)cc3)cc2)NC(=O)[C@H](Cc2ccc(-c3ccc(C(=O)O)cc3)cc2)NC(=O)[C@H](C(C)(C)C)NC(=O)CSC[C@@H](C(=O)NCC(N)=O)NC(=O)[C@H](CC(C)C)NC(=O)[C@H](Cc2ccc(O)cc2)NC(=O)[C@H](C2CCCCC2)NC(=O)[C@@H]2CCCN2C1=O [Example 270] ({CH2CO}-[Tle][Bip(4'-COOH)][Bip(4'-NHAc)][Sar]PD[dR]IP[Chg]YLCG-NH2; thioether N-13)
8 | 50 to 200 | CC(=O)Nc1ccc(-c2ccc(C[C@@H]3NC(=O)[C@H](Cc4ccc(-c5ccc(C(=O)O)cc5)cc4)NC(=O)[C@H](CC4CCCCC4)NC(=O)CSC[C@@H](C(=O)NCC(N)=O)NC(=O)[C@H](CC(C)C)NC(=O)[C@H](Cc4ccc(O)cc4)NC(=O)[C@H](C(C)C)NC(=O)[C@@H]4Cc5ccccc5CN4C(=O)[C@H](C(C)C)NC(=O)[C@@H](CCCNC(=N)N)NC(=O)[C@H](CC(=O)O)NC(=O)[C@@H]4CCCN4C(=O)CN(C)C3=O)cc2)cc1 [Example 275] ({CH2CO}-[Cha][Bip(4'-COOH)][Bip(4'-NHAc)][Sar]PD[dR]V[Tic]VYLCG-NH2; thioether N-13)

The next lines start with the molecule.

Row | SMILES | IC50 [nM]
9 | CC[C@H](C)[C@@H]1NC(=O)[C@@H](CCCNC(=N)N)NC(=O)[C@H](CC(=O)O)NC(=O)[C@H](Cc2ccccn2)NC(=O)CN(C)C(=O)[C@H](Cc2ccc(-c3ccc(NC(C)=O)cc3)cc2)NC(=O)[C@H](Cc2ccc(-c3ccccc3)cc2)NC(=O)[C@H](C(C)(C)C)NC(=O)CSC[C@@H](C(=O)NCC(N)=O)NC(=O)[C@H](CC(C)C)NC(=O)[C@H](Cc2cccc(C(N)=O)c2)NC(=O)[C@H](C(C)C)NC(=O)[C@@H]2CCCN2C1=O [Example 262] ({CH2CO}-[Tle][Bip][Bip(4'-NHAc)][Sar][2Pal]D[dR]IPV[Phe(3-CONH2)]LCG-NH2; thioether N-13) | 50 to 200
10 | CC[C@H](C)[C@@H]1NC(=O)[C@@H](CCCNC(=N)N)NC(=O)[C@H](CC(=O)O)NC(=O)[C@H](Cc2ccccc2)NC(=O)CN(C)C(=O)[C@H](Cc2ccc(-c3ccc(NC(C)=O)cc3)cc2)NC(=O)[C@H](Cc2ccc(-c3ccc(C(=O)O)cc3)cc2)NC(=O)[C@H](C(C)(C)C)NC(=O)CSC[C@@H](C(=O)NCC(N)=O)NC(=O)[C@H](CC(C)C)NC(=O)[C@H](CCCNC(=N)N)NC(=O)[C@H](C2CCCCC2)NC(=O)[C@@H]2CCCN2C1=O [Example 268] ({CH2CO}-[Tle][Bip(4'-COOH)][Bip(4'-NHAc)][Sar]FD[dR]IP[Chg]RLCG-NH2; thioether N-13) | < 50
11 | CC(=O)Nc1ccc(-c2ccc(C[C@@H]3NC(=O)[C@H](Cc4ccc(-c5ccc(C(=O)O)cc5)cc4)NC(=O)[C@H](CC4CCCCC4)NC(=O)CSC[C@@H](C(=O)NCC(N)=O)NC(=O)[C@H](CC(C)C)NC(=O)[C@H](Cc4cnc[nH]4)NC(=O)[C@H](C(C)C)NC(=O)[C@@H]4CCN4C(=O)[C@H](C(C)C)NC(=O)[C@@H](CCCNC(=N)N)NC(=O)[C@H](CC(=O)O)NC(=O)[C@H](Cc4ccc(O)cc4)NC(=O)CN(C)C3=O)cc2)cc1 [Example 271] ({CH2CO}-[Cha][Bip(4'-COOH)][Bip(4'-NHAc)][Sar]YD[dR]V[Aze]VHLCG-NH2; thioether N-13) | 50 to 200
12 | CC(=O)Nc1ccc(-c2ccc(C[C@@H]3NC(=O)[C@H](Cc4ccc(-c5ccc(C(=O)O)cc5)cc4)NC(=O)[C@H](CC4CCCCC4)NC(=O)CSC[C@@H](C(=O)NCC(N)=O)NC(=O)[C@H](CC(C)C)NC(=O)[C@H](Cc4cnc[nH]4)NC(=O)[C@H](C4CCCCC4)NC(=O)[C@@H]4CCN4C(=O)[C@H](C(C)C)NC(=O)[C@@H](CCCNC(=N)N)NC(=O)[C@H](CC(=O)O)NC(=O)[C@H](Cc4cnc[nH]4)NC(=O)CN(C)C3=O)cc2)cc1 [Example 272] ({CH2CO}-[Cha][Bip(4'-COOH)][Bip(4'-NHAc)][Sar]HD[dR]V[Aze][Chg]HLCG-NH2; thioether N-13) | 50 to 200
13 | CC(=O)Nc1ccc(-c2ccc(C[C@@H]3NC(=O)[C@H](Cc4ccc(-c5ccccc5)cc4)NC(=O)[C@H](CN4CCOCC4)NC(=O)CSC[C@@H](C(=O)NCC(N)=O)NC(=O)[C@H](CC(C)C)NC(=O)[C@H](Cc4cnc[nH]4)NC(=O)[C@H](C(C)C)NC(=O)[C@@H]4CCN4C(=O)[C@H](C(C)C)NC(=O)[C@@H](CCCNC(=N)N)NC(=O)[C@H](CC(=O)O)NC(=O)[C@H](Cc4ccc(O)cc4)NC(=O)CN(C)C3=O)cc2)cc1 [Example 273] ({CH2CO}-[Ala(morpholin-4-yl)][Bip][Bip(4'-NHAc)][Sar]YD[dR]V[Aze]VHLCG-NH2; thioether N-13) | < 50
14 | CC[C@H](C)[C@@H]1NC(=O)[C@@H](CCCNC(=N)N)NC(=O)[C@H](CC(=O)O)NC(=O)[C@H](Cc2cnc[nH]2)NC(=O)CN(C)C(=O)[C@H](Cc2ccc(-c3ccc(NC(C)=O)cc3)cc2)NC(=O)[C@H](Cc2ccc(-c3ccc(C(=O)O)cc3)cc2)NC(=O)[C@H](CC2CCCCC2)NC(=O)CSC[C@@H](C(=O)NCC(N)=O)NC(=O)[C@H](CC(C)C)NC(=O)[C@H](Cc2cnc[nH]2)NC(=O)[C@H](C(C)C)NC(=O)[C@@H]2Cc3ccccc3CN2C1=O [Example 274] ({CH2CO}-[Cha][Bip(4'-COOH)][Bip(4'-NHAc)][Sar]HD[dR]I[Tic]VHLCG-NH2; thioether N-13) | < 50
15 | CC[C@H](C)[C@@H]1NC(=O)[C@@H](CCCNC(=N)N)NC(=O)[C@H](CC(=O)O)NC(=O)[C@H](Cc2cnc[nH]2)NC(=O)CN(C)C(=O)[C@H](Cc2ccc(-c3ccc(NC(C)=O)cc3)cc2)NC(=O)[C@H](Cc2ccc(-c3ccc(C(=O)O)cc3)cc2)NC(=O)[C@H](CC2CCCCC2)NC(=O)CSC[C@@H](C(=O)NCC(N)=O)NC(=O)[C@H](CC(C)C)NC(=O)[C@H](Cc2cnc[nH]2)NC(=O)[C@H](C(C)C)NC(=O)[C@@H]2c3ccccc3CCN2C1=O [Example 276] ({CH2CO}-[Cha][Bip(4'-COOH)][Bip(4'-NHAc)][Sar]HD[dR]I[Tiq1c(1S)]VHLCG-NH2; thioether N-13) | < 50
16 | CC[C@H](C)[C@@H]1NC(=O)[C@@H](CCCNC(=N)N)NC(=O)[C@H](CC(=O)O)NC(=O)[C@H](Cc2cnc[nH]2)NC(=O)CN(C)C(=O)[C@H](Cc2ccc(-c3ccc(NC(C)=O)cc3)cc2)NC(=O)[C@H](Cc2ccc(-c3ccc(C(=O)O)cc3)cc2)NC(=O)[C@H](CC2CCCCC2)NC(=O)CSC[C@@H](C(=O)NCC(N)=O)NC(=O)[C@H](CC(C)C)NC(=O)[C@H](Cc2cnc[nH]2)NC(=O)[C@H](C(C)C)NC(=O)[C@@H]2C[C@@H](O)CN2C1=O [Example 277] ({CH2CO}-[Cha][Bip(4'-COOH)][Bip(4'-NHAc)][Sar]HD[dR]I[Hyp]VHLCG-NH2; thioether N-13) | < 50
